Data set [1] concerns glycine binding site of the NMDA receptor. To be noted: cited from earlier work.
The target of the next data set is glycine/NMDA receptor. Nature of the data set: glycine/NMDA receptor affinity (1 μM glycine-stimulated [3H]-MK801 binding, rat brain membranes; also estimated by electrophysiology). The method, then: The assay is conducted using rat brain membrane homogenates that are enriched in NMDA receptors. The membranes are prepared as follows. Frozen rat brains (obtained from Pel-Freez, Rogers, Ark.) are homogenized in 15 volumes (w/v) of ice cold 0.32M sucrose. The homogenate is spun at 1,000×g for ten minutes. The supernatant is collected and spun for 20 minutes at 44,000×g. The pellet is suspended in 15 volumes of water (relative to original brain weight). The homogenate is again spun at 44,000×g for twenty minutes. The pellet is resuspended in 5 volumes of water and the suspension is freeze-thawed 2 times. After the final thaw cycle, the suspension is brought to 15 volumes with water and spun at 44,000×g for twenty minutes. The pellet is resuspended in 5 volumes of ice-cold 10 mM HEPES, and is titrated to pH 7.4 with KOH containing 0.04% Triton X-100. […] The volume is then brought to 15 with ice-cold 10 mM HEPES, pH 7.4, and spun/washed three times with spins of 44,000×g between washes. The final pellet is suspended in three volumes of 50 mM HEPES, pH 7.4 and the protein concentration is determined with a standard dye-binding protein assay (Bio-Rad, Richmond, Calif.). The suspension is stored at -80° C. until used. Only HPLC grade water is used for all buffers and suspensions/washings. The extensive washings are necessary to remove as much endogenous glycine from the membrane preparation as possible.
Nonspecific binding is defined as the […] presence of PCP (final concentration: 100 μM). […] A 500 nM concentration (final) of 5,7-dichlorokynurenic (DCK) acid is added to all assay tubes. This concentration of the glycine antagonist DCK "buffers" most of the residual endogenous glycine that is not removed by the extensive washing steps that are carried out during the membrane preparation procedure.
Filtration is accomplished using a Brandel 48 well cell harvester. Filtered membranes are washed three times with 3 mL each of ice cold buffer. Filters are transferred to scintillation vials and 5 mL of scintillation cocktail is added. The vials are shaken overnight and the radioactivity is counted by liquid scintillation spectroscopy. The assays are done in triplicate and all experiments are conducted at least three times.
The binding affinities at NMDA receptor glycine sites also were estimated by electrophysiological assay either using cloned rat NMDA receptors expressed in Xenopus oocytes, or non-NMDA receptors expressed in oocytes by whole rat brain poly(A)^+ RNA. […] For NMDA receptors Kb s were approximated by averaging values at three subtype combinations (NR1A/NR2A, NR1A/NR2B, and NR1A/NR2C).

The next data set deals with MES-induced seizures. Nature of the data set: anticonvulsant activity, maximum electroshock-induced seizure (MES) experiment in mice. The class given is in vivo, mouse. To be noted: for ED50: Mus musculus, iv, read-out: ED50 as an anticonvulsant in MES experiment. The method, then:
The anticonvulsant activity of the glycine antagonists may be assessed in the maximum electroshock-induced seizure (MES) assay in mice. […] The seizure stimulus parameters were: 50 mA, 60 Hz, rectangular pulse, width 0.8 msec, duration 200 msec. Tonic hind limb extension observed after application of the electrical stimulus was recorded as occurrence of seizure. The drug was applied i.v. as an aqueous basic solution.

Data set [2] has as its system MES-induced tonic clonic seizures. As to the kind of experiment: Example 35: time course and potency in maximum electroshock (MES) model, i.v., mice. The class given is in vivo, Swiss-Webster mouse. To be noted: for protection of mice at the lowest dose: 2 minutes; for animals showing no tonic seizures: 2 minutes after i.v. 5 mg/kg (6-chloro-8-(N-oxy)aza) or 10 mg/kg (6-chloro-7-methyl-8-(N-oxy)aza); for mice protected against seizures: 15 minutes after i.v. 5 mg/kg (6-chloro-8-(N-oxy)aza) or 10 mg/kg (6-chloro-7-methyl-8-(N-oxy)aza); for ED50: Mus musculus, iv, 2 min, Litchfield and Wilcoxon, read-out: ED50, inhibition of MES-induced seizures; for ED50 / 95% confidence limits of ED50 / inhibition of MES-induced seizures / time of maximal anti-MES effect: i.v.; for ED50 / 95% confidence limits of ED50: 2 minutes post injection; for efficacy in inhibiting MES-induced tonic seizures over time: i.v. time course, 2-60 minutes; for inhibition of MES-induced seizures: dose dependence; for time of maximal anti-MES effect: post-injection. The source says:
The objectives of the studies were to determine the time of maximal effect and potency for compounds 6-chloro-8-(N-oxy)aza-1,4-dihydroquinoxaline-2,3-dione and 6-chloro-7-methyl-8-(N-oxy)aza-1,4-dihydroquinoxaline-2,3-dione in the inhibition of maximal electroshock (MES)-induced tonic clonic seizures following intravenous (i.v.) administration in mice.
The time-course study involved a one-factor, between groups design in which animals were divided into groups based on the time between administration of 6-chloro-8-(N-oxy)aza-1,4-dihydroquinoxaline-2,3-dione and 6-chloro-7-methyl-8-(N-oxy)aza-1,4-dihydroquinoxaline-2,3-dione and the MES stimulus. Similarly, the potency study involved a one-factor, between group design in which animals were divided into groups based on drug dose. Each group in both studies consisted of 8 animals.
6-Chloro-8-(N-oxy)aza-1,4-dihydroquinoxaline-2,3-dione and 6-chloro-7-methyl-8-(N-oxy)aza-1,4-dihydroquinoxaline-2,3-dione were dissolved in 0.05M Tris (J. T. Baker) at concentrations of 5 mg/mL and 2.5 mg/mL, respectively.
Experiments were conducted with Swiss-Webster male mice (Simonsen Lab. Inc.). Mice were 5-6 weeks old and weighed 18-24 g upon arrival in the laboratory. In the time course study, mice were treated with an i.v. injection of 6-chloro-8-(N-oxy)aza-1,4-dihydroquinoxaline-2,3-dione (5 mg/kg) or 6-chloro-7-methyl-8-(N-oxy)aza-1,4-dihydroquinoxaline-2,3-dione(10 mg/kg) or vehicle. Mice were tested at 2, 15, 30, or 60 minutes after vehicle or drug administration. […] The electroshock device was a Ugo Basile ECT Unit 7801 (Varese, Italy; Model 24093). The electroshock characteristics were as follows: 50 mA, 60 pulses per second, […], and a 0.2 second train length. […] Tonic seizures were defined as the tonic extension of the forelimbs and hindlimbs. […] Therefore, the result from each animal was an all-or-none phenomenon with either a seizure present or absent following the shock administration. The time point at which 6-chloro-8-(N-oxy)aza-1,4-dihydroquinoxaline-2,3-dione and 6-chloro-7-methyl-8-(N-oxy)aza-1,4-dihydroquinoxaline-2,3-dione produced a maximal response was determinated by analyzing the graphical results. The dose at which 50% of the animals were protected against MES-induced seizures (ED50) was calculated by Litchfield and Wilcoxon Method (Pharm/PCS R. J. Tallarida & R. B. Murray Version 4.2).

The test system of data set [3] is focal cerebral ischemia (MCA occlusion). Nature of the data set: rat model of permanent focal cerebral ischemia (MCA occlusion), infarct volume. The class given is in vivo, Sprague-Dawley rat. Here is the method: Male Sprague-Dawley rats ([…]) were intubated and maintained under anesthesia with ±2% of halothane. Body temperature was maintained at 37.5° C. during surgery by means of a warming pad and a rectal probe connected to the control unit. The common carotid arteries (CCA) were isolated and a loose silk ligature was placed around each CCA. A vertical skin incision was made between the left orbit and the auditory canal, posterior part of zygoma removed, and a small opening (2.0/2.5 mm) drilled dorsorostrally to the foramen ovale under constant saline irrigation. The dura was opened with a microsurgical hook and the brain gently retracted with a fine spatula to expose the bifurcation of the internal carotid artery and the middle cerebral artery. The ipsilateral CCA was ligated and the MCA coagulated from its origin to the olfactory tract. Two hours after MCA occlusion, the clip from the contralateral CCA was removed. […]
Brains were sliced into 2 mm blocks and stained with tetrazolium red (2,3,5-triphenyl tetrazolium chloride). The areas of brain damage were assessed using an image analyzer (Image-1, Universal Imaging Corporation, PA) to determine the volume of cortical and subcortical infarction by integration of areas and the distance between each level.

A short description of data set [4]: blood-brain-barrier crossing inferred from Ki and MES ED50. The class given is in vivo, mouse.
Another data set deals with brain ischemia / neurons. To be noted: cited from earlier work.
[5] abbreviates: 20 mg/kg bolus + 14 mg/kg/h for 22 h, 30 min after MCA occlusion.

Molecules are shown by their SMILES. pKi: −log10 of the molar value.

On to `O=C(O)c1cc(O)c2c(Cl)cc(Cl)cc2n1` [5,7-dichlorokynurenic acid], for which the “receptor binding affinity in vitro” value in data set [1] is reported as “relatively high receptor binding affinity in vitro”.
With `O=c1[nH]c2cc(Cl)c(Cl)[n+]([O-])c2[nH]c1=O` [6,7-Dichloro-8(N-oxy)aza-1,4-dihydroquinoxaline-2,3-dione], the pKi at glycine/NMDA receptor was 7.00. The ED50 in the data set with MES-induced seizures was determined as 7.5 mg/kg.
Consider `O=c1[nH]c2cc(Cl)c(Cl)c([N+](=O)[O-])c2[nH]c1=O` [6,7-dichloro-5-nitro-1,4-dihydroquinoxaline-2,3-dione, reference compound], for which the pKi on glycine/NMDA receptor was 8.48. In the data set on MES-induced seizures, the “ED50 as an anticonvulsant in MES experiment” value is 4 to 5 mg/kg.
`O=c1[nH]c2cc(Br)c[n+]([O-])c2[nH]c1=O` [6-Bromo-8-(N-oxy)aza-1,4-dihydroquinoxaline-2,3-dione]: the pKi at glycine/NMDA receptor is 6.00. The ED50 in the data set with MES-induced seizures lay in the range of 1 to 1.5 mg/kg.
With `Cc1c(Cl)cc2[nH]c(=O)c(=O)[nH]c2[n+]1[O-]` [6-Chloro-7-methyl-8-(N-oxy)aza-1,4-dihydroquinoxaline-2,3-dione], the pKi on glycine/NMDA receptor is 7.30. The ED50 in the data set with MES-induced seizures stood at 7 mg/kg. Besides, the “protection of mice at the lowest dose” value in data set [2] (4 mg/kg i.v.) came to 12.5%. In data set [2], the “animals showing no tonic seizures” value is reported as 8/8, the “mice protected against seizures” value was 3/8, the ED50 is 6.71 mg/kg and the “efficacy in inhibiting MES-induced tonic seizures over time” value is “decreased over one hour”. Moreover, in data set [2], the “95% confidence limits of ED50” value was 5.48 to 8.22 mg/kg; the “inhibition of MES-induced seizures” value is “dose dependently, inhibited MES-induced seizures”; the “time of maximal anti-MES effect” value turned out to be 2 min.
`[O-][n+]1cc(Cl)cc2nc(O)c(O)nc21` [6-Chloro-8-(N-oxy)aza-1,4-dihydroquinoxaline-2,3-dione]: on glycine/NMDA receptor, the pKi was 6.22. Also, the “protection at the lower dose” value in data set [3] (10 mg/kg bolus + 7 mg/kg/h for 22 h, immediately after MCA occlusion) is listed as “no protection”. Also, in data set [3] (setting [5]), the “reduction in cortical infarct volume” value was 70% and the “reduction in subcortex infarct volume” value stood at 35%. In addition, the “reduction in cortical infarct volume” value in data set [3] (20 mg/kg bolus + 14 mg/kg/h for 22 h i.v., immediately after MCA occlusion) is given as 67%. Further, the neuroprotection result in data set [3] (rat model of focal ischemia) is “significant neuroprotection”. Also, the ED50 in the data set on MES-induced seizures fell in the range of 1 to 1.5 mg/kg. Besides, the “protection of mice at the lowest dose” value in data set [2] (0.5 mg/kg i.v.) is 25%. In data set [2], the “animals showing no tonic seizures” value was 8/8, the “mice protected against seizures” value is 4/8, the ED50 is 1.26 mg/kg and the “efficacy in inhibiting MES-induced tonic seizures over time” value is “decreased over one hour”. In data set [2], the “95% confidence limits of ED50” value fell in the range of 0.94 to 1.67 mg/kg; the “inhibition of MES-induced seizures” value is reported as “dose dependently, inhibited MES-induced seizures”; the “time of maximal anti-MES effect” value was found to be 2 min. Also, in data set [4], the “blood-brain-barrier crossing relative to 6,7-dichloro-5-nitro-1,4-dihydroquinoxaline-2,3-dione” value is reported as “about 1000 times”.
`Cc1cc2[nH]c(=O)c(=O)[nH]c2[n+]([O-])c1` [6-Methyl-8-(N-oxy)aza-1,4-dihydroquinoxaline-2,3-dione]: on glycine/NMDA receptor, the pKi was 5.62. Moreover, the ED50 with MES-induced seizures was in the range of 1 to 1.5 mg/kg.
As for `O=C(O)c1cc(O)c2ccc(Cl)cc2n1` [7-Cl-kynurenic acid], the “receptor binding affinity in vitro” value in data set [1] is on record as “relatively high receptor binding affinity in vitro”.
Take `O=c1[nH]c2cc(Cl)cnc2[nH]c1=O` [Compound 5, 6-Chloro-8-aza-1,4-dihydroquinoxaline-2,3-dione]: the “activity relative to corresponding QX” value in the data set with glycine/NMDA receptor is given as “about as active as the corresponding 6-chloro-QX”.
Turning to `O=c1[nH]c2cc(Cl)c(Cl)nc2[nH]c1=O` [Compound 6, 6,7-Dichloro-8-aza-1,4-dihydroquinoxaline-2,3-dione], the pKi on glycine/NMDA receptor is roughly 6.70.
Still for that read-out and setting: to `Cc1nc2[nH]c(=O)c(=O)[nH]c2cc1Br` [Compound 8, 6-Bromo-7-methyl-8-aza-1,4-dihydroquinoxaline-2,3-dione] belongs roughly 6.70.
In the case of `O=c1[nH]c2ccncc2[nH]c1=O` [Compound 11, 6-Aza-1,4-dihydroquinoxaline-2,3-dione], the “activity relative to corresponding QX” value in the data set with glycine/NMDA receptor was “about as active as QX”.
As for `O=c1[nH]c2cncnc2[nH]c1=O` [Compound 13, 6,8-Diaza-1,4-dihydroquinoxaline-2,3-dione], the “activity relative to corresponding QX” value in the data set on glycine/NMDA receptor was “about as active as QX”.
In the case of `NC1CCN(O)C1=O` (stereo not shown) [HA-966], in data set [1], the agonist character result is “partial agonist” and the “receptor binding affinity in vitro” value was “micromolar affinity for the glycine binding site”.
`COc1ccc2c(c1)[C@]13CCCC[C@@H]1[C@H](C2)N(C)CC3` [dextromethorphan]: the neuroprotective efficacy entry in the data set with brain ischemia / neurons was “neuroprotective efficacy both in vitro and in vivo”.
Turning to `O=C(O)c1cc2ccccc2[nH]1` [indole-2-carboxylic acid], the “receptor binding affinity in vitro” value in data set [1] was “relatively high receptor binding affinity in vitro”.
For the compound `CNC1(c2ccccc2Cl)CCCCC1=O` (stereo not shown) [ketamine], the neuroprotective efficacy result with brain ischemia / neurons is “neuroprotective efficacy both in vitro and in vivo”.

Usually pKi stands for −log10 of the Ki, conventionally taken in molar units. As usually defined, the ED50 is the midpoint of the dose-response relation.

Values taken from patent publication US5863916A, “8-aza, 6-aza and 6,8-diaza-1,4-dihydroquinoxaline-2,3-diones and the use thereof as antagonists for the glycine/NMDA receptor” (priority 1997, dated 1999).
